In PubChem BioAssay (NCI) one finds GI50 and TGI data, which are given here for eight compounds.

The structures appear in SMILES notation. Several values for one entry are separate records, joined by “and”; a condition that tells them apart may be missing. Identical values can stand only once.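 Growth conditions: 96-well plates. Treatment: test compound, 48 hours, 5 concentrations. Analysis: linear interpolation between bracketing concentrations; unreached endpoints set to highest concentration. Abbreviation: GI50, concentration required for 50% inhibition of growth. TGI denotes the concentration required for complete inhibition of growth.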

Among the test systems are U251 CNS; MDA-MB-231 breast; OVCAR-3 ovarian; NCI-H226 lung; UACC-257 melanoma; SW-620 colon; KM12 colon; ACHN renal; HCT-15 colon; CCRF-CEM leukemia.
What all share (test): inhibition of tumour cell growth, NCI panel, 48 h

Turning to `O=Cc1ccc(-c2ccc(-c3nc4ccccc4s3)cc2)o1`, the GI50 in the assay on U251 CNS is 35.2 µM; with MDA-MB-231 breast, 22 µM; in the assay on OVCAR-3 ovarian, 16 µM; in the assay with NCI-H226 lung, 5.03 µM; with UACC-257 melanoma, more than 100 µM; in the assay with SW-620 colon, 89 µM. Besides, the GI50 was 46.5 µM with KM12 colon, more than 100 µM in the assay with ACHN renal and 90.4 µM in the assay on HCT-15 colon. In addition, the TGI in the assay with U251 CNS was more than 100 µM; in the assay on MDA-MB-231 breast, 68.1 µM; with OVCAR-3 ovarian, 74.1 µM; in the assay with NCI-H226 lung, more than 100 µM; with UACC-257 melanoma, more than 100 µM; in the assay on SW-620 colon, more than 100 µM. Also, the TGI with KM12 colon, with ACHN renal and in the assay on HCT-15 colon was more than 100 µM throughout.
Take `OCC1OC(N2C=C(c3nc4ccccc4s3)C3C=CC=CC32)C(O)C(O)C1O` (centres undefined): the GI50 in the assay with U251 CNS was 16.6 µM; with MDA-MB-231 breast, 15.4 µM; with OVCAR-3 ovarian it was 14.9 µM; in the assay with NCI-H226 lung, 14.5 µM; with UACC-257 melanoma it was 14.8 µM; with SW-620 colon, 21 µM. Also, the figures for the GI50 in the assay with KM12 colon, in the assay on ACHN renal and in the assay on HCT-15 colon were 11 µM, 14.7 µM and 31.1 µM, respectively. Moreover, the TGI with U251 CNS is more than 50 µM; in the assay on MDA-MB-231 breast it was more than 50 µM; in the assay on OVCAR-3 ovarian, more than 50 µM; with NCI-H226 lung, more than 50 µM; with UACC-257 melanoma, 42.9 µM; with SW-620 colon it was more than 50 µM. The TGI in the assay on KM12 colon is 24.3 µM; in the assay with ACHN renal, more than 50 µM; in the assay with HCT-15 colon, more than 50 µM.
Turning to `CCOc1ccc(-c2nc3ccc(-c4nc5ccc(N6CCN(C)CC6)cc5[nH]4)cc3[nH]2)cc1`, the GI50 with U251 CNS is 0.155 µM; in the assay on MDA-MB-231 breast it was 1.25 µM; in the assay with CCRF-CEM leukemia it was 316 nM; with OVCAR-3 ovarian it was 0.125 µM; with NCI-H226 lung, 0.648 µM; with SW-620 colon, 0.234 µM. Further, the GI50 is 0.999 µM in the assay on KM12 colon; 0.631 µM and 1.18 µM with ACHN renal; 1.48 µM in the assay with HCT-15 colon. The TGI was 1.05 µM with U251 CNS; 2.6 µM with MDA-MB-231 breast; 1.87 µM in the assay with CCRF-CEM leukemia; 0.393 µM in the assay on OVCAR-3 ovarian; 2.25 µM with NCI-H226 lung; 1.17 µM in the assay with SW-620 colon. Also, the TGI is 2.15 µM with KM12 colon; 1.89 µM and 2.7 µM with ACHN renal; 7.61 µM in the assay on HCT-15 colon.
Regarding `COc1ccc(-c2cnc(-c3ccc(OC)cc3)n2-c2cc(OC)c(OC)c(OC)c2)cc1`, the GI50 with U251 CNS is 24.4 µM; with MDA-MB-231 breast, 18.4 µM; in the assay with CCRF-CEM leukemia, more than 100000 nM; in the assay on OVCAR-3 ovarian, 24.7 µM; in the assay with NCI-H226 lung it was 36.7 µM; in the assay on UACC-257 melanoma, 22.9 µM. The results for the GI50 in the assay on SW-620 colon, with KM12 colon and in the assay on HCT-15 colon were more than 100 µM, 34.9 µM and 36 µM, respectively. The TGI with U251 CNS is 69.2 µM; in the assay with MDA-MB-231 breast it was 74.3 µM; with CCRF-CEM leukemia it was more than 100 µM; in the assay on OVCAR-3 ovarian, 65 µM; in the assay with NCI-H226 lung, more than 100 µM; with UACC-257 melanoma, 85.9 µM. Also, the TGI with SW-620 colon, in the assay with KM12 colon and with HCT-15 colon was more than 100 µM each time.
For `CCOC(=O)Cc1csc(NC(=O)C(OC(=O)c2ccc(Cl)cc2)c2ccccc2)n1` (centres undefined), the GI50 is 45.3 µM in the assay with U251 CNS; 31.7 µM in the assay with MDA-MB-231 breast; 17.8 µM in the assay with OVCAR-3 ovarian; 54.4 µM with NCI-H226 lung; 41.3 µM in the assay with UACC-257 melanoma; 48.4 µM in the assay on SW-620 colon. In addition, the GI50 in the assay with KM12 colon was 38.9 µM; in the assay on ACHN renal, 62.1 µM; with HCT-15 colon, 51.6 µM. Besides, the TGI in the assay on U251 CNS is more than 100 µM; with MDA-MB-231 breast, more than 100 µM; in the assay on OVCAR-3 ovarian, 41.9 µM; in the assay on NCI-H226 lung, more than 100 µM; in the assay with UACC-257 melanoma it was more than 100 µM; in the assay with SW-620 colon, more than 100 µM. The TGI in the assay with KM12 colon, in the assay on ACHN renal and with HCT-15 colon was more than 100 µM in each case.
Consider `O=S(O)O.O=S(O)O.[Co].[NH2-].[NH2-].[NH2-].[NH2-]`, for which the GI50 in the assay on U251 CNS, in the assay with MDA-MB-231 breast, in the assay with OVCAR-3 ovarian, in the assay on NCI-H226 lung, with UACC-257 melanoma and with SW-620 colon was more than 100 µM throughout. Moreover, the GI50 in the assay on KM12 colon, with ACHN renal and in the assay with HCT-15 colon was more than 100 µM throughout. The TGI in the assay on U251 CNS, in the assay on MDA-MB-231 breast, in the assay on OVCAR-3 ovarian, with NCI-H226 lung, with UACC-257 melanoma and with SW-620 colon was more than 100 µM throughout. For the same compound, the TGI with KM12 colon, in the assay on ACHN renal and with HCT-15 colon was more than 100 µM throughout.
As for `Clc1ccc(-c2cnc3c(-c4ccnc(N5CCNCC5)c4)cnn3c2)cc1`, the GI50 in the assay on U251 CNS is 1.89 µM; in the assay with MDA-MB-231 breast, 1.74 µM; in the assay with CCRF-CEM leukemia, 2070 nM; with OVCAR-3 ovarian, 1.96 µM; in the assay on NCI-H226 lung, 21.4 µM; in the assay on UACC-257 melanoma, 2.08 µM. The results for the GI50 in the assay with SW-620 colon, with KM12 colon and in the assay with HCT-15 colon were 1.78 µM, 1.87 µM and 2.7 µM, respectively. In addition, the TGI in the assay with U251 CNS came out at 3.51 µM; with MDA-MB-231 breast, 3.7 µM; with CCRF-CEM leukemia, 5.13 µM; in the assay with OVCAR-3 ovarian, 3.42 µM; in the assay on NCI-H226 lung, 44.7 µM; in the assay with UACC-257 melanoma, 3.82 µM. The results for the TGI with SW-620 colon, with KM12 colon and in the assay on HCT-15 colon were 3.27 µM, 3.43 µM and 5.18 µM, respectively.
`CCn1nc(C2CCN(C(=O)CCO)CC2)nc1-c1cnc(N)c(-c2nnc(C(C)(C)C)o2)n1`: the GI50 in the assay with U251 CNS is more than 65.5 µM; in the assay with MDA-MB-231 breast, 15.1 µM; in the assay with CCRF-CEM leukemia, 18200 nM; with OVCAR-3 ovarian, 7.81 µM; in the assay with NCI-H226 lung, 25.8 µM; in the assay with SW-620 colon, 18.3 µM. In addition, the GI50 was 14.9 µM in the assay on KM12 colon, 3.92 µM with ACHN renal and 6.17 µM in the assay on HCT-15 colon. The TGI with U251 CNS was more than 100 µM; in the assay with MDA-MB-231 breast it was 68.2 µM; in the assay on CCRF-CEM leukemia, more than 100 µM; in the assay with OVCAR-3 ovarian, 38.4 µM; in the assay on NCI-H226 lung it was more than 100 µM; in the assay on SW-620 colon, more than 100 µM. In addition, the TGI with KM12 colon was 45.1 µM; in the assay with ACHN renal, more than 100 µM; with HCT-15 colon, more than 100 µM.
